Results: ChEMBL document CHEMBL3621062, “Discovery, SAR, and X-ray Binding Mode Study of BCATm Inhibitors from a Novel DNA-Encoded Library” (ACS Med Chem Lett, 2015)

Target: T1, Branched-chain-amino-acid aminotransferase, mitochondrial (Homo sapiens, UniProt O15382)
T1 sequence (O15382 whole entry): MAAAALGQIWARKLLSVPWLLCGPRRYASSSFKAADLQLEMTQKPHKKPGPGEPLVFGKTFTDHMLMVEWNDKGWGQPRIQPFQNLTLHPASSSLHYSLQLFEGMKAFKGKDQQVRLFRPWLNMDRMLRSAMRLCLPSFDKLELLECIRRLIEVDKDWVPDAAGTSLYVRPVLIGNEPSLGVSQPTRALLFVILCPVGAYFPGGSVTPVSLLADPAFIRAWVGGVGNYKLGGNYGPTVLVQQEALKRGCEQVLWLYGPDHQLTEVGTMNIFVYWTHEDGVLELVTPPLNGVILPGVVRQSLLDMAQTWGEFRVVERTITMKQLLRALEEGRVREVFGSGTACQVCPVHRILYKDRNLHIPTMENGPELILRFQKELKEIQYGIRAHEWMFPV
Experiment: Inhibition of human BCATm after 10 mins by fluorescent assay

IC50 | Structure (SMILES)
64.6 µM | CNC(=O)c1ccc(-c2ccccc2C)cc1O[C@@H]1CCN(C(=O)c2ccc(Br)s2)C1
2 µM | CNC(=O)c1ccc(-c2ccccc2NS(C)(=O)=O)cc1O[C@@H]1CCN(C(=O)c2ccc(Br)s2)C1
> 100 µM | CNC(=O)c1ccc(-c2cccc(C(=O)O)c2)cc1OC1CCN(C(=O)c2cc(Br)ccc2NC(=O)OC(C)(C)C)C1 (stereo not given)
> 100 µM | CNC(=O)c1ccc(-c2ccccc2)cc1O[C@@H]1CCN(C(=O)c2ccc(Br)s2)C1
> 100 µM | CNC(=O)c1ccccc1OC1CCN(C(=O)c2ccc(Br)s2)C1 (stereo not given)
> 100 µM | CNC(=O)c1ccc(-c2cccc(C(=O)O)c2)cc1OC1CCN(C(=O)c2cc(Br)ccc2N)C1 (stereo not given)
74.1 µM | CNC(=O)c1ccc(-c2cccc(C(=O)O)c2)cc1OC1CCN(C(=O)c2ccc(Br)s2)C1 (stereo not given)
15.1 µM | CNC(=O)c1ccc(-c2ccccc2NS(C)(=O)=O)cc1O[C@@H]1CCN(C(=O)c2ccc(C#N)s2)C1
3.9 µM | CNC(=O)c1ccc(-c2ccccc2NS(C)(=O)=O)cc1OC1CCN(C(=O)c2ccc(Br)s2)C1 (racemic)
2.8 µM | CNC(=O)c1ccc(-c2ccccc2NS(C)(=O)=O)cc1O[C@@H]1CCN(C(=O)c2ccc(Cl)s2)C1
